Results published in US20100010219A1, “METHOD FOR PRODUCING PYRROLIDINE COMPOUND” (JAPAN TOBACCO INC., priority 2006, published 2010).
Structures can show the parent of a compound that is named as a salt.

Target: T1, human HSD-1 (recombinant HSD-1) (Homo sapiens, UniProt P28845)
T1 construct: made in house
Assay: HSD-1 activity inhibitory action in vitro (SPA, conversion of cortisone to cortisol)
Format: biochemical
Settings: recombinant human HSD-1 expressed using baculovirus system; 10 nM 3H cortisone, 500 μM NADPH; room temperature 90 to 120 min; read-out: hHSD1 (IC50 (nM))

T1 sequence (P28845 whole entry): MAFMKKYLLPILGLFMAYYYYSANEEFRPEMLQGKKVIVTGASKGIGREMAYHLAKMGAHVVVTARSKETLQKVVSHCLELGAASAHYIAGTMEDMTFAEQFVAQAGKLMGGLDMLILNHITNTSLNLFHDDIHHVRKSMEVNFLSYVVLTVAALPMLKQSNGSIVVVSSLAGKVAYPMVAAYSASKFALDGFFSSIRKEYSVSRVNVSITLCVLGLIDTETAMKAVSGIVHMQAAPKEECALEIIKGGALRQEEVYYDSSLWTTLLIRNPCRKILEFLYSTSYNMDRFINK

SMILES	IC50
Cc1nc(N2CCC(n3ncc(C(=O)N4CC[C@@H](c5ccccc5C(F)(F)F)C4)c3C3CC3)CC2)n[nH]1 [Example 117, 1-{5-cyclopropyl-1-[1-(5-methyl-4H-[1,2,4]triazol-3-yl)piperidin-4-yl]-1H-pyrazole-4-carbonyl}-[(S)-3-(2-trifluoromethylphenyl)]pyrrolidine hydrochloride]	< 30 nM
O=C(c1cnn(C2CCN(c3n[nH]c(C4CC4)n3)CC2)c1C1CC1)N1CC[C@@H](c2ccccc2C(F)(F)F)C1 [Example 118, 1-{5-cyclopropyl-1-[1-(5-cyclopropyl-4H-[1,2,4]triazol-3-yl)piperidin-4-yl]-1H-pyrazole-4-carbonyl}-[(S)-3-(2-trifluoromethylphenyl)]pyrrolidine hydrochloride]	< 30 nM
O=C(c1cnn(C2CCN(c3n[nH]c(CO)n3)CC2)c1C1CC1)N1CC[C@@H](c2ccccc2C(F)(F)F)C1 [Example 119, 1-{5-cyclopropyl-1-[1-(5-hydroxymethyl-4H-[1,2,4]triazol-3-yl)piperidin-4-yl]-1H-pyrazole-4-carbonyl}-[(S)-3-(2-trifluoromethylphenyl)]pyrrolidine hydrochloride]	< 30 nM
O=C(c1cnn(C2CCN(c3n[nH]c(C(F)(F)F)n3)CC2)c1C1CC1)N1CC[C@@H](c2ccccc2C(F)(F)F)C1 [Example 120, 1-{5-cyclopropyl-1-[1-(5-trifluoromethyl-4H-[1,2,4]triazol-3-yl)piperidin-4-yl]-1H-pyrazole-4-carbonyl}-[(S)-3-(2-trifluoromethylphenyl)]pyrrolidine hydrochloride]	< 30 nM
O=C(Nc1ccccc1F)N1CCC(n2ncc(C(=O)N3CC[C@@H](c4ccccc4C(F)(F)F)C3)c2C2CC2)CC1 [Example 124, 1-{5-cyclopropyl-1-[1-(2-fluorophenylcarbamoyl)piperidin-4-yl]-1H-pyrazole-4-carbonyl}-[(S)-3-(2-trifluoromethylphenyl)]pyrrolidine]	< 30 nM
CC(C)NC(=O)N1CCC(n2ncc(C(=O)N3CC[C@@H](c4ccccc4C(F)(F)F)C3)c2C2CC2)CC1 [Example 125, 1-{5-cyclopropyl-1-[1-(1-isopropylcarbamoyl)piperidin-4-yl]-1H-pyrazole-4-carbonyl}-[(S)-3-(2-trifluoromethylphenyl)]pyrrolidine]	< 30 nM
CC1(NC(=O)N2CCC(n3ncc(C(=O)N4CC[C@@H](c5ccccc5C(F)(F)F)C4)c3C3CC3)CC2)CC1 [Example 126, 1-{5-cyclopropyl-1-[1-(1-methylcyclopropylcarbamoyl)piperidin-4-yl]-1H-pyrazole-4-carbonyl}-[(S)-3-(2-trifluoromethylphenyl)]pyrrolidine]	< 30 nM
O=C(c1cnn(C2CCN(c3cnccn3)CC2)c1C1CC1)N1CC[C@@H](c2ccccc2C(F)(F)F)C1 [Example 129, 1-[5-cyclopropyl-1-(1-pyrazin-2-ylpiperidin-4-yl)-1H-pyrazole-4-carbonyl]-[(S)-3-(2-trifluoromethylphenyl)]pyrrolidine hydrochloride]	< 30 nM
NC(=O)[C@H]1CC[C@H](n2ncc(C(=O)N3CC[C@@H](c4ccccc4C(F)(F)F)C3)c2C2CC2)CC1 [Example 130, 1-[1-(trans-4-carbamoylcyclohexyl)-5-cyclopropyl-1H-pyrazole-4-carbonyl]-[(S)-3-(2-trifluoromethylphenyl)]pyrrolidine]	< 30 nM
NC(=O)N[C@H]1CC[C@H](n2ncc(C(=O)N3CC[C@@H](c4ccccc4C(F)(F)F)C3)c2C2CC2)CC1 [Example 131, 1-[5-cyclopropyl-1-(trans-4-ureidocyclohexyl)-1H-pyrazole-4-carbonyl]-[(S)-3-(2-trifluoromethylphenyl)]pyrrolidine]	< 30 nM
O=C(c1cnn([C@H]2CC[C@H](c3nnn[nH]3)CC2)c1C1CC1)N1CC[C@@H](c2ccccc2C(F)(F)F)C1 [Example 132, 1-{5-cyclopropyl-1-[trans-4-(1H-tetrazol-5-yl)cyclohexyl]-1H-pyrazole-4-carbonyl}-[(S)-3-(2-trifluoromethylphenyl)]pyrrolidine]	< 30 nM
CC1(c2c(C(=O)N3CCC(c4cccnc4)C3)cnn2C2CCN(C(=O)Nc3ccc(C(F)(F)F)cc3)CC2)CC1 (stereo not shown) [Example 133, 1-{5-(1-methylcyclopropyl)-1-[1-(4-trifluoromethylphenylcarbamoyl)piperidin-4-yl]-1H-pyrazole-4-carbonyl}-3-(pyridin-3-yl)pyrrolidine]	< 30 nM

Next, values leading:

IC50	SMILES
< 30 nM	NC(=O)CCN1CCC(n2ncc(C(=O)N3CC[C@@H](c4ccccc4C(F)(F)F)C3)c2C2CC2)CC1 [Example 97, 1-{1-[1-(2-carbamoylethyl)piperidin-4-yl]-5-cyclopropyl-1H-pyrazole-4-carbonyl}-[(S)-3-(2-trifluoromethylphenyl)]pyrrolidine hydrochloride]
< 30 nM	O=C(c1cnn(C2CCN(C3CC3)CC2)c1C1CC1)N1CC[C@@H](c2ccccc2C(F)(F)F)C1 [Example 99, 1-[5-cyclopropyl-1-(1-cyclopropylpiperidin-4-yl)-1H-pyrazole-4-carbonyl]-[(S)-3-(2-trifluoromethylphenyl)]pyrrolidine hydrochloride]
< 30 nM	CN(C)C(=O)CN1CCC(n2ncc(C(=O)N3CC[C@@H](c4ccccc4C(F)(F)F)C3)c2C2CC2)CC1 [Example 100, 1-[5-cyclopropyl-1-(1-dimethylcarbamoylmethylpiperidin-4-yl)-1H-pyrazole-4-carbonyl]-[(S)-3-(2-trifluoromethylphenyl)]pyrrolidine hydrochloride]
< 30 nM	CC(C(N)=O)N1CCC(n2ncc(C(=O)N3CC[C@@H](c4ccccc4C(F)(F)F)C3)c2C2CC2)CC1 (stereo partly drawn) [Example 103, 1-{1-[1-(1-carbamoylethyl)piperidin-4-yl]-5-cyclopropyl-1H-pyrazole-4-carbonyl}-[(S)-3-(2-trifluoromethylphenyl)]pyrrolidine hydrochloride]
< 30 nM	CC(C)(CN1CCC(n2ncc(C(=O)N3CC[C@@H](c4ccccc4C(F)(F)F)C3)c2C2CC2)CC1)C(N)=O [Example 105, 1-{1-[1-(2-carbamoyl-2-methylpropyl)piperidin-4-yl]-5-cyclopropyl-1H-pyrazole-4-carbonyl}-[(S)-3-(2-trifluoromethylphenyl)]pyrrolidine hydrochloride]
< 30 nM	NC(=O)C1(CN2CCC(n3ncc(C(=O)N4CC[C@@H](c5ccccc5C(F)(F)F)C4)c3C3CC3)CC2)CC1 [Example 106, 1-{1-[1-(1-carbamoylcyclopropylmethyl)piperidin-4-yl]-5-cyclopropyl-1H-pyrazole-4-carbonyl}-[(S)-3-(2-trifluoromethylphenyl)]pyrrolidine hydrochloride]
< 30 nM	O=C(c1cnn(C2CCN(CC3(C(=O)NCCO)CC3)CC2)c1C1CC1)N1CC[C@@H](c2ccccc2C(F)(F)F)C1 [Example 107, 1-(5-cyclopropyl-1-{1-[1-(2-hydroxyethylcarbamoyl)cyclopropylmethyl]piperidin-4-yl}-1H-pyrazole-4-carbonyl)-[(S)-3-(2-trifluoromethylphenyl)]pyrrolidine hydrochloride]
< 30 nM	O=C(c1cnn(C2CCN(S(=O)(=O)C(F)(F)F)CC2)c1C1CC1)N1CC[C@@H](c2ccccc2C(F)(F)F)C1 [Example 108, 1-[5-cyclopropyl-1-(1-trifluoromethanesulfonylpiperidin-4-yl)-1H-pyrazole-4-carbonyl]-[(S)-3-(2-trifluoromethylphenyl)]pyrrolidine]
< 30 nM	O=C(c1cnn(C2CCN(S(=O)(=O)CC(F)(F)F)CC2)c1C1CC1)N1CC[C@@H](c2ccccc2C(F)(F)F)C1 [Example 109, 1-{5-cyclopropyl-1-[1-(2,2,2-trifluoroethanesulfonyl)piperidin-4-yl]-1H-pyrazole-4-carbonyl}-[(S)-3-(2-trifluoromethylphenyl)]pyrrolidine]
< 30 nM	C/C(=N\C#N)N1CCC(n2ncc(C(=O)N3CC[C@@H](c4ccccc4C(F)(F)F)C3)c2C2CC2)CC1 [Example 110, 1-{1-[1-(1-cyanoiminoethyl)piperidin-4-yl]-5-cyclopropyl-1H-pyrazole-4-carbonyl}-[(S)-3-(2-trifluoromethylphenyl)]pyrrolidine]
< 30 nM	CN/C(=N\C#N)N1CCC(n2ncc(C(=O)N3CC[C@@H](c4ccccc4C(F)(F)F)C3)c2C2CC2)CC1 [Example 111, 1-(1-{1-[cyanoimino(methylamino)methyl]piperidin-4-yl}-5-cyclopropyl-1H-pyrazole-4-carbonyl)-[(S)-3-(2-trifluoromethylphenyl)]pyrrolidine]
< 30 nM	N#C/N=C(\N)N1CCC(n2ncc(C(=O)N3CC[C@@H](c4ccccc4C(F)(F)F)C3)c2C2CC2)CC1 [Example 112, 1-{1-[1-(N-cyanocarbamimidoyl)piperidin-4-yl]-5-cyclopropyl-1H-pyrazole-4-carbonyl}-[(S)-3-(2-trifluoromethylphenyl)]pyrrolidine]
< 30 nM	O=C(O)c1ccc(N2CCC(n3ncc(C(=O)N4CCC(c5ccccc5C(F)(F)F)C4)c3C3CC3)CC2)cc1 (stereo not shown) [Example 113, 4-(4-{5-cyclopropyl-4-[3-(2-trifluoromethylphenyl)pyrrolidine-1-carbonyl]pyrazol-1-yl}piperidin-1-yl)benzoic acid]
< 30 nM	O=C(O)c1cccc(N2CCC(n3ncc(C(=O)N4CCC(c5ccccc5C(F)(F)F)C4)c3C3CC3)CC2)c1 (stereo not shown) [Example 114, 3-(4-{5-cyclopropyl-4-[3-(2-trifluoromethylphenyl)pyrrolidine-1-carbonyl]pyrazol-1-yl}piperidin-1-yl)benzoic acid]
< 30 nM	O=C(O)c1ccc(N2CCC(n3ncc(C(=O)N4CCC(c5ccccc5C(F)(F)F)C4)c3C3CC3)CC2)s1 (stereo not shown) [Example 115, 5-(4-{5-cyclopropyl-4-[3-(2-trifluoromethylphenyl)pyrrolidine-1-carbonyl]pyrazol-1-yl}piperidin-1-yl)thiophene-2-carboxylic acid]
< 30 nM	O=C(O)c1csc(N2CCC(n3ncc(C(=O)N4CCC(c5ccccc5C(F)(F)F)C4)c3C3CC3)CC2)n1 (stereo not shown) [Example 116, 2-(4-{5-cyclopropyl-4-[3-(2-trifluoromethylphenyl)pyrrolidine-1-carbonyl]pyrazol-1-yl}piperidin-1-yl)thiazole-4-carboxylic acid]
